This note sets out measurements from patent US8592405B2, “Synergistic antimicrobial composition” (Dow Global Technologies LLC, priority 2009, dated 2013).

Values joined by “and” are separate entries in the source; they are usually repeats but may differ in a detail not shown here. Equal values may be shown once.

What all share (assay type): cell-based
One assay concerns Aspergillus niger (An). The assay can be described thus: Fungal efficacy testing, modified ASTM 5590 (12-well, dry paint film). The settings on record: three weeks; for % inhibition: at the Total conc; for Total conc, ppm: total biocide in paint taken as minimum inhibitory concentration, 30 C. Here is the method: (§1) Samples of white acrylic latex paint free of biocides were prepared in 50 ml aliquots. Each biocide was post added to give the necessary active ingredient concentration in the paint. The total biocides concentrations tested were 750, 1500, 2500 and 5000 ppm. After biocides addition, each sample was hand mixed for a minimum of 30 sec, followed by a 3 min run on the paint shaker (RED DEVIL). Each of the paint samples as well as a control sample (containing no biocide) were used to prepare films on black plastic-vinyl chloride/acetate copolymer panels (LENETA, Mahwah, N.J.) using a 3 mil bird bar applicator. The panels were thoroughly dried for 5 days avoiding direct exposure to sunlight. Square discs (15 mm^2) were cut out from each panel and were used as the substrate for fungal and algal efficacy tests. This sample size allowed for an agar border when the sample disc was placed into the well of the test plate.
(§2) The appropriate media (BOLD'S 3N for Chlorophytes, BG-11 for Cyanobacteria, and PDA for fungi) were used to support microbial growth. The test plates were maintained at room temp (25° C.-26° C.), in a cycled light-dark environment, for 3 weeks for algae. Plates for fungal challenge tests were maintained at 30C for three weeks. At the end of incubation period the samples were scored for percent area covered by visible microbial growth.
ASTM 5590 is a standard accelerated test method for determining resistance of various coatings (including paints) to fungal defacement. To accommodate for high-throughput screening, this method was scaled down from petri plates to 12-well plates. To set up the test, an agar plug was placed at the bottom of each well of the sterile 12-well plate. A single coupon was placed with a pair of sterile forceps at the center of the agar plug (on top) with the painted surface facing upwards. Each well was inoculated with 150 μl of organism (1×10^6 cfu/ml) making sure that the whole surface (paint film as well as the agar surrounding it) was evenly covered. The plates were incubated at 30° C. in presence of moisture, for a period of three weeks. The total percent area covered was evaluated and recorded at the end of each week after the 2nd week and recorded in increments of 5%. […]

Assay [1] has as its system Alternaria alternata (Aa). Described as above. As to conditions: three weeks; for % inhibition: at the Total conc; for Total conc, ppm: total biocide in paint taken as minimum inhibitory concentration, 30 C. Here is the method:
as §1, §2
(§3) ASTM 5590 is a standard accelerated test method for determining resistance of various coatings (including paints) to fungal defacement. To accommodate for high-throughput screening, this method was scaled down from petri plates to 12-well plates. To set up the test, an agar plug was placed at the bottom of each well of the sterile 12-well plate. A single coupon was placed with a pair of sterile forceps at the center of the agar plug (on top) with the painted surface facing upwards. Each well was inoculated with 150 μl of organism (1×10^6 cfu/ml) making sure that the whole surface (paint film as well as the agar surrounding it) was evenly covered. The plates were incubated at 30° C. in presence of moisture, for a period of three weeks. The total percent area covered was evaluated and recorded at the end of each week after the 2nd week and recorded in increments of 5%.
(§4) The SI is calculated based on F. C. Kull et.

Assay [2] relates to Aureobasidium pullulans (Ap). The assay is described as above. The settings on record: three weeks; for % inhibition: at the Total conc; for Total conc, ppm: total biocide in paint taken as minimum inhibitory concentration, 30 C. Here is the method:
as §1, §2, §3, §4

The test system of assay [3] is Cladosporium herbarum (Ch). Described as above. The settings on record: three weeks; for % inhibition: at the Total conc; for Total conc, ppm: total biocide in paint taken as minimum inhibitory concentration, 30 C. Here is the method:
as §1, §2, §3, §4

Assay [4] relates to Penicillium funiculosum (Pf). Described as above. As to conditions: three weeks; for % inhibition: at the Total conc; for Total conc, ppm: total biocide in paint taken as minimum inhibitory concentration, 30 C. Here is the method:
as §1, §2, §3, §4

For assay [5], the system named is Stachybotris chartarum (Sc). Described as above. The settings on record: three weeks; for % inhibition: at the Total conc; for Total conc, ppm: total biocide in paint taken as minimum inhibitory concentration, 30 C. Here is the method: as §1, §2, §3, §4
The test system of assay [6] is Cp + To + Ta (Calotrix parientina, Trentepohlia odorata, Trentepohlia aurea). The assay can be described thus: Algal efficacy testing, modified ASTM 5589 (6-well, mixed inoculum, Example 4). The settings on record: four weeks; for Total conc, ppm: Cp + To + Ta mixed inoculum, NE = no end point at the concentration tested; for % inhibition: Cp + To + Ta, at the Total conc. As to the method: (§5) A single or blend of biocides was post added into white acrylic latex paint free of biocides to give a maximum total active ingredient/s concentration tested. This paint was then diluted with a biocide free acrylic latex paint at concentrations range of 75 to 12.5% w/w to give desired concentrations for the testing. Depending on the type of biocide blends tested, the total biocides concentrations varies from 200 to 5000 ppm. After biocides addition or dilution each sample was hand mixed for at least a minute until uniformity is achieved. Each of the paint samples as well as a control sample (containing no biocide) were used to prepare films on black plastic-vinyl chloride/acetate copolymer panels (LENETA, Mahwah, N.J.) using a 3 mil bird bar applicator. The panels were thoroughly dried for at least 2 days avoiding direct exposure to sunlight. Square discs (0.5 inch^2, 13 mm^2) were cut out from each panel and were used as the substrate for fungal and algal efficacy tests. This sample size allowed for an agar border when the sample disc was placed into the well of the test plate. Each sample was tested in duplicate
(§6) The appropriate media (BOLD'S 3N for Chlorophytes, BG-11 for Cyanobacteria, and PDA for fungi) were used to support microbial growth. The test plates were maintained at room temp (25° C.-26° C.), in a cycled light-dark environment, for four weeks for algae. Plates for fungal challenge tests were maintained at 30 C for four weeks. At the end of the incubation period the samples were scored for percent area covered by visible microbial growth.
(§7) ASTM 5589 is a standard accelerated test method for determining resistance of various coatings (including paints) to algal defacement. To accommodate for high-throughput screening, this method was scaled down from petri plates to 6-well plates. A single coupon was placed with a pair of sterile forceps at the center of the agar plug (on top) with the painted surface facing upwards. Algal inoculums were prepared by mixing equal concentrations (1×10^6 cfu/ml) and equal volumes (depending on number of samples to be inoculated) of like growing organisms. In this study, Gloeocapsa sp. and Oscillatoria sp. were a mix of cyanobacteria grown on BG-11 media. Chlorella sp., Chlorella kessleri, and Nostoc commune are unicellular chlorphytes that were mixed and grown on Bold media. Trentepohlia aurea, Trentepohlia odorata, and Calotrix parientina are filamentous algae that were mixed and grown on Bold media. Each well was inoculated with 400 μl of organism mixture (1×10^6 cfu/ml) making sure that the whole surface (paint film as well as the agar surrounding it) was evenly covered. The plates were incubated at room temp (25° C.-26° C.) with cyclic exposure to light (OTT-Lite model #OTL4012P, 40 Watt, 26 KLumen) and dark phases, for a period of four weeks. The total area covered was evaluated at the end of each week according to percent area covered in 5% increments. While rating the plates, notations were made for zones of inhibition.

The test system of assay [7] is Cs + Ck + Nc (Chlorella sp., Chlorella kessleri, Nostoc commune). The assay is described as above. The settings on record: four weeks; for Total conc, ppm: Cs + Ck + Nc mixed inoculum, NE = no end point at the concentration tested; for % inhibition: Cs + Ck + Nc, at the Total conc. As to the method: as §5, §6, §7
Assay [8] deals with Gs + Os (Gloeocapsa sp. + Oscillatoria sp.). Described as above. As to conditions: four weeks; for Total conc, ppm: Gs + Os mixed inoculum, NE = no end point at the concentration tested; for % inhibition: Gs + Os, at the Total conc. As to the method:
as §5, §6, §7

In the case of `CCCCCCCCn1sc(Cl)c(Cl)c1=O` [DCOIT, 4,5-dichloro-2-n-octyl-4-isothiazolin-3-one], the “% inhibition” value with Aspergillus niger (An) turned out to be 75%; in assay [1], 87.5%; in [2], 77.5%; in assay [3], 67.5%; in [4], 82.5%; in assay [5], 32.5%. The “% inhibition” value in [6], in assay [7] and in [8] was 100% each time. The “Total conc, ppm” value in the assay on Aspergillus niger (An) was 5000 ppm; in [1] it was 5000 ppm; in [2], 2500 ppm; in [3], 5000 ppm; in [4] it was 2500 ppm; in [5], 5000 ppm. Also, the figures for the “Total conc, ppm” value in [6], in assay [7] and in assay [8] were 575 ppm, 575 ppm and 287.5 ppm, respectively.
For `Cc1ccc(S(=O)(=O)C(I)I)cc1` [DIMTS, diiodomethyl-p-tolylsulfone], the “% inhibition” value was 75% in the assay on Aspergillus niger (An); 77.5% in assay [1]; 77.5% in [2]; 72.5% in [3]; 82.5% in assay [4]; 50% in assay [5]. For the same compound, the “% inhibition” value in assay [6] is listed as 95%; in assay [7], 100%; in assay [8], 100%. In addition, the “Total conc, ppm” value in the assay on Aspergillus niger (An) is on record as 750 ppm; in assay [1], 2500 ppm; in assay [2], 2500 ppm; in [3], 750 ppm; in assay [4] it was 1500 ppm; in assay [5] it was 750 ppm. In addition, the “Total conc, ppm” value in assay [6] came to 1875 ppm; in [7], 1250 ppm; in assay [8], 1875 ppm.
Regarding `CN(C)C(=O)Nc1cccc(C(F)(F)F)c1` [Fluometuron, 1,1-dimethyl-3-(α,α,α-trifluoro-m-tolyl)urea], the “Total conc, ppm” value with Aspergillus niger (An) is 2500 ppm and 5000 ppm; in assay [1], 2500 ppm and 5000 ppm; in assay [2] it was 2500 ppm and 5000 ppm; in assay [3] it was 2500 ppm and 5000 ppm; in assay [4] it was 2500 ppm and 5000 ppm; in assay [5], 5000 ppm. Also, the results for the “Total conc, ppm” value in assay [6], in assay [7] and in [8] were 1250 ppm, 1250 ppm and 312.5 ppm, respectively. Besides, the “% inhibition” value in assay [5] came to 65%; in assay [6] it was 100%; in assay [7], 100%; in [8], 100%.

The % inhibition is the share of the control response that was lost under treatment.
